Results published in US4221909A, “P-Acetamidobenzoic acid salts of 9-(hydroxyalkyl) purines” (Sloan-Kettering Institute for Cancer Research, priority 1978, dated 1980).
Counter-ions that a name gives are not always drawn.

Assays:
Assay type in all cases: cell-based
Mouse spleen cells = assay: Mitogen Induced (Con A) Mouse Lymphocyte Proliferation
Description: The following three assay procedures are used to evaluate the ability of the test substances to modulate the activity of several classes of cells in the immune system. In these systems it is possible to identify both immunopotentiating activity (evidence by an enhancement of the parameter examined) as well as immunosuppressant activity (evidenced by an inhibition of the parameter examined).
1. Mitogen--Induced Mouse Spleen Cell Assay--Mouse spleen cells contain a population of both B and T lymphocytes which can be stimulated by a number of foreign substances (e.g., plant mitogens such as Con A) to proliferate. This enhanced proliferation is an indication of enhanced cell mediated immunity. The method below describes the system used to evaluate test substances as immunopotentiators.
Concanavalin A (Calbiochem, La Jolla, Calif.), Lot #210073, lyophilized in NaCl, was prepared first as a 1% solution and diluted as a 2× concentration for each dilution (0.5, 1.0, 2.5 μg/ml).
Six to eight week old male Balb/c and C3 H inbred mice were obtained from the following sources: Flow Research Animals, Inc., Dublin, Va.; Charles River Breeding Laboratories, Wilmington, Mass.; Laboratory Supply Company, Indianapolis, Ind.; and Lionel Strong Foundation, San Diego, Calif.
Three to five mice were sacrificed by cervical dislocation and the spleens aseptically removed. Pooled spleens were minced and teased with sterile forceps; then strained through a double layer of nylon mesh. The cell suspension was washed once with 15 ml of RPMI 1640 supplemented with 5% fetal calf serum and antibiotics. Cells were cultured at a concentration of 10^6 cells/0.1 ml/well in micro-plates. Cultures were incubated in the presence or absence of mitogen in a humidified atmosphere containing 5% CO2 for 48 hours. The test compound was added to cultures at various concentrations concommitant with mitogen.
Proliferation was assayed by the degree of incorporation of 1.0 μCi of [^3 H] thymidine over an 18 hour incubation period. Cultures were harvested by a MASH unit (Otto Hiller Co., Madison, Wisconsin) and thymidine incorporation was assayed by liquid scintillation spectrometry. Cultures were performed in triplicate and data are expressed as means plus or minus the strandard error of the experimental means. Drug stimulation indices over control values were also calculated and portrayed graphically.

[1] = system: human peripheral blood lymphocytes; assay: Mitogen Induced (PHA) Human Lymphocyte Proliferation
influenza virus = assay: Anti-influenza activity (summary)

In the case of `CCCCCC[C@H]([C@H](C)O)n1cnc2c(N)ncnc21` (relative stereo) [NPT 15426, Erythro-9-(2-Hydroxy-3-Nonyl)-Adenine. HCl], the “Maximum Percent Change, Mitogen Induced (Con A) Mouse Lymph. Prolif.” value (Mouse spleen cells; 1.0-10) is reported as -85%, the “Maximum Percent Change, Mitogen Induced (Con A) Mouse Lymph. Prolif.” value (Mouse spleen cells; 10-100) is reported as -91% and the “Maximum Percent Change, Mitogen Induced (Con A) Mouse Lymph. Prolif.” value (Mouse spleen cells; .01-1.0) is reported as -50%. The “Maximum Percent Change, Mitogen Induced (PHA) Human Lymph. Prolif.” value ([1]; 1.0-10) was -41%, the “Maximum Percent Change, Mitogen Induced (PHA) Human Lymph. Prolif.” value ([1]; .01-1.0) was 6% and the “anti-influenza activity by themselves” value (influenza virus) was “significant anti-influenza activity”.
